We go through 18 molecules from PubChem BioAssay (NCI).

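Cells were grown in 96-well plates and exposed to each compound for 48 hours at five concentrations; endpoints were interpolated linearly between bracketing concentrations, or set to the highest concentration if not reached. Here, GI50 denotes the concentration required for 50% inhibition of growth. TGI: total growth inhibition.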

What all share (assay): NCI anticancer screen, dose series, 48 h
The test system of test [1] is CCRF-CEM leukemia.
In test [2] the test system is COLO 205 colon.
The test system of test [3] is HOP-62 NSCLC.
For test [4], the system named is K-562 leukemia.
Test [5] relates to MCF7 breast.
For test [6], the system named is NCI-H23 lung.
For test [7], the system named is NCI-H522 lung.
Test [8] relates to OVCAR-3 ovarian.
Test [9] concerns SK-OV-3 ovarian.
In test [10] the test system is HCT-116 colon.
Test [11] has as its system SNB-19 CNS.

As for `Fc1ccc(C(OCCN2CC3CC2CN3)c2ccc(F)cc2)cc1` (stereo not drawn), the TGI in test [1] was > 100 µM; in test [2], 33.5 µM; in test [3], > 100 µM; in [4], > 100 µM; in [5], > 100 µM; in test [6], > 100 µM. Further, the TGI in test [7], in test [8] and in [9] was > 100 µM in each case.
As for `O=S(=O)(c1ccc2ccccc2c1)N1CCN(S(=O)(=O)c2ccc3ccccc3c2)CC1`, the TGI in test [1], in [2], in test [10], in test [3], in [4] and in test [5] was > 100 µM each time. For the same molecule, the TGI in test [6], in [7], in [8], in test [9] and in test [11] was > 100 µM each time.
Take `CO/C(=N\N=C(/c1ccccc1)C(F)(F)F)c1ccncc1`: the TGI in test [1] was 77 µM; in [2], > 100 µM; in test [10], > 100 µM; in [3], > 100 µM; in [4] it was > 100 µM; in test [5], > 100 µM. Also, the TGI in test [6], in test [7], in test [8], in test [9] and in [11] was > 100 µM throughout.
`CCN(CC)C(=S)SSCCO`: the GI50 in test [1] was 14.5 µM; in [10], 14.6 µM; in test [3], > 100 µM; in test [4], 4.21 µM; in [6], 16.4 µM; in test [7] it was 0.211 µM. For the same molecule, the values for the GI50 in test [9] and in test [11] were 73.9 µM and 95.4 µM, respectively. In addition, the TGI was 45.2 µM in test [1]; 27.7 µM in [10]; > 100 µM in test [3]; 18 µM in test [4]; 31.5 µM in test [6]; 20.3 µM in test [7]. Further, the TGI in [9] and in test [11] was > 100 µM in each case.
`Cc1cc(C)c(S(=O)(=O)N(CCCN)OCCCN)c(C)c1`: the TGI in [1], in test [2], in test [10], in test [3], in [4] and in [5] was > 100 µM throughout. For the same molecule, the TGI in test [6], in test [8], in [9] and in test [11] was > 100 µM throughout.
Consider `O=C([O-])C1([n+]2c(-c3ccccc3)cc(-c3ccccc3)cc2-c2ccccc2)CC1`, for which the TGI in test [1], in [10], in test [3], in [4], in test [5] and in test [6] was > 100 µM each time. Further, the TGI in test [7], in test [8] and in test [11] was > 100 µM in each case.
Consider `CC(=O)Nc1cc(/C=C\C(=O)N2CC(CCl)c3c2cc(N)c2ccccc32)n(C)n1` (stereo not drawn), for which the TGI in test [1] was 0.012 µM; in [2] it was 0.0901 µM; in test [4] it was 0.0203 µM; in test [5], > 100 µM; in [6] it was 0.0273 µM; in [8], > 100 µM. Moreover, the GI50 in test [9] was 0.0311 µM; in [11], 0.0277 µM.
In the case of `N=C(N)c1ccc(N=Nc2c(O)ccc3cc(O)ccc23)cc1`, the TGI in test [1], in test [2], in test [10], in test [3], in test [4] and in [5] was > 100 µM each time. Also, the TGI in [7], in test [8], in [9] and in test [11] was > 100 µM each time.
Regarding `CC1=NN(C(=O)c2ccc(C)cc2)C(=O)C1N=Nc1ccccc1C(=O)O` (stereo not drawn), the TGI in test [1], in test [2], in [10], in [3], in test [4] and in [5] was > 100 µM in each case. The TGI in [6], in test [7], in test [8], in test [9] and in [11] was > 100 µM each time.
In the case of `CCOC(=O)[C@H]1Nc2c(cccc2[N+](=O)[O-])C2c3ccccc3CC21` (stereo partly drawn), the TGI in test [2], in [10], in [3], in test [4], in test [6] and in [7] was > 100 µM throughout. Further, the TGI in test [8] and in test [11] was > 100 µM throughout.
As for `Cc1ccc2oc3c(ccc(=O)n3C)c(=O)c2c1`, the TGI in test [1], in test [2], in test [10], in test [3], in test [4] and in test [5] was > 100 µM throughout. For the same molecule, the TGI in test [6], in test [7], in [8], in test [9] and in test [11] was > 100 µM throughout.
Take `O=c1[nH]c(=S)[nH]c2c(C3OC(CO)C(O)C3O)nsc12` (stereo not drawn): the TGI in [1], in [2], in [10], in [3], in test [4] and in test [5] was > 100 µM in each case. The TGI in test [8] and in test [9] was > 100 µM in each case.
For `N/C(=N\N=C/c1cc([N+](=O)[O-])cc([N+](=O)[O-])c1O)NO`, the TGI in test [1] was > 100 µM; in test [2], > 31.6 µM; in test [10], > 100 µM; in test [3] it was > 39.1 µM; in [4] it was > 91.2 µM; in [5], > 100 µM. Moreover, the TGI in test [6], in [7], in test [8], in [9] and in [11] was > 100 µM throughout.
With `COc1cccc(/C=N/[N-]C(N)=O)c1[O-].[OH3+].[Pd+2]`, the TGI in test [1], in test [2], in [10], in [3], in test [4] and in test [6] was > 100 µM in each case. In addition, the TGI in test [7], in test [8], in test [9] and in [11] was > 100 µM each time.
In the case of `CC(N)=O.[Cl][Pt][Cl].[NH-]c1ccn(C2OC(CO)C(O)C2O)c(=O)n1` (stereo not drawn), the TGI in [1], in test [2], in [10], in test [3], in test [4] and in test [5] was > 100 µM each time. For the same molecule, the TGI in test [6], in test [7], in test [8], in test [9] and in [11] was > 100 µM each time.
On to `CC1=CC(=O)c2c(O)c3c(c(O)c2C1=O)C1C(O)C(C3=O)C23C(=O)c4c(O)c(C)cc(O)c4C(O)=C2C(=O)CC(O)C13` (stereo not drawn), for which the TGI in test [1] was > 100 µM; in test [2], 4.76 µM; in test [10], 2.5 µM; in [3] it was 6.21 µM; in [4] it was > 100 µM; in test [5] it was 14.6 µM. In addition, the TGI is 14.1 µM in test [6], 7.75 µM in [8], 6.86 µM in [9] and 20.2 µM in test [11].
With `O=C(/C=C\c1ccc(/C=C/C(=O)Nc2cccc(C3=NCCCN3)c2)cc1)Nc1cccc(C2=NCCCN2)c1`, the TGI in test [1], in test [2], in test [10], in [3], in test [4] and in test [5] was > 100 µM each time. Further, the TGI in [6], in test [7], in test [8], in [9] and in test [11] was > 100 µM throughout.
For `Clc1cccc(C2SCc3nc4ccccc4n32)c1` (stereo not drawn), the TGI in test [1] is > 100 µM; in test [2], 15.1 µM; in test [3], 55.9 µM; in [4], > 100 µM; in test [6] it was 51.4 µM; in [7] it was 29.5 µM. In addition, the figures for the TGI in [8] and in test [9] were 29.1 µM and 52.7 µM, respectively.
